Laboratory results: the supplement of paper PMC10307832

Columns and labels:
Test in all cases: relative viability (nuclei count vs DMSO), 5 days (fraction); higher = more cells survive
AT-7519 = compound: O=C(NC1CCNCC1)c1n[nH]cc1NC(=O)c1c(Cl)cccc1Cl [AT-7519]
Summary of the method: (§1)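 Lung cancer cell lines in 1536-well plates were kept overnight at 37 °C, then pinned with five library-drug doses (not always all listed) spaced by √10 on vehicle-anchored plates. After 5 days without medium change, cells were fixed, permeabilised and Hoechst-stained in one step, imaged at 4×, and nuclei were counted with MetaXpress. Viability is treated-well nuclei divided by vehicle-well nuclei, taken as the median over plates. Plates passed only with control CV below 25% and at least one doubling.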

[1] = compound: C1=CC2=C(C=C(C(=C2N=C1)O)N=NC3=CC4=C(C=C3)C=C(C=C4)S(=O)(=O)O)S(=O)(=O)O
Summary of the method: as §1

[2] = compound: C1=CC2=C(C=C(C(=C2N=C1)O)N=NC3=CC4=C(C=C3)C=C(C=C4)S(=O)(=O)O)S(=O)(=O)O + CC1(C)CCC(c2ccc(Cl)cc2)=C(CN2CCN(c3ccc(C(=O)NS(=O)(=O)c4ccc(N[C@H](CCN5CCOCC5)CSc5ccccc5)c(S(=O)(=O)C(F)(F)F)c4)cc3)CC2)C1 [Navitoclax] (partner 0.5 µM)
Summary of the method: (§2)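 Cells from lung cancer lines were seeded into 1536-well plates and, one day later, dosed by pin tool. Treatments were either a single drug or a fixed dose of an anchor drug with five library-drug doses (not always all listed) in √10 steps. After 5 days, nuclei were stained in a one-step fixation (final 0.05% Triton X-100, 1% formaldehyde, 1 ug/ml Hoechst) and counted on 4× images, and relative viability is the treated-to-vehicle nuclei ratio, as the median of duplicate plates.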

AT-7519 + Tozasertib = compound: O=C(NC1CCNCC1)c1n[nH]cc1NC(=O)c1c(Cl)cccc1Cl [AT-7519] + Cc1cc(Nc2cc(N3CCN(C)CC3)nc(Sc3ccc(NC(=O)C4CC4)cc3)n2)n[nH]1 [Tozasertib] (partner 0.1 µM)
Summary of the method: as §2

UMC-11
relative viability (AT-7519; 0.01 µM): 0.951 | relative viability (AT-7519; 0.03162 µM): 0.934 | relative viability (AT-7519; 0.3162 µM): 0.765 | relative viability (AT-7519; 1 µM): 0.499 | relative viability ([1]; 0.08 µM): 1.11 | relative viability ([1]; 0.253 µM): 0.942 | relative viability ([1]; 0.8 µM): 0.925 | relative viability ([1]; 2.53 µM): 1.02 | relative viability ([1]; 8 µM): 0.92 | relative viability ([2]; first compound 0.08 µM): 0.261 | relative viability ([2]; first compound 0.253 µM): 0.334 | relative viability ([2]; first compound 0.8 µM): 0.314 | relative viability ([2]; first compound 2.53 µM): 0.293 | relative viability ([2]; first compound 8 µM): 0.333 | relative viability (AT-7519 + Tozasertib; first compound 0.01 µM): 0.223 | relative viability (AT-7519 + Tozasertib; first compound 0.03162 µM): 0.211 | relative viability (AT-7519 + Tozasertib; first compound 0.3162 µM): 0.278 | relative viability (AT-7519 + Tozasertib; first compound 1 µM): 0.219
